# In patent US12435080B2, “sGC stimulators” (Tisento Therapeutics Inc., priority 2016, dated 2025):
# Target: T1, sGC (Rattus norvegicus, UniProt P20595)
# T1 construct: Rat primary neurons were isolated from fetuses of 18-day pregnant Sprague-Dawley females; endogenous in cells; host or cells: Primary rat hippocampal neurons (E18 Sprague-Dawley fetuses)
# T1 sequence (P20595 1-619): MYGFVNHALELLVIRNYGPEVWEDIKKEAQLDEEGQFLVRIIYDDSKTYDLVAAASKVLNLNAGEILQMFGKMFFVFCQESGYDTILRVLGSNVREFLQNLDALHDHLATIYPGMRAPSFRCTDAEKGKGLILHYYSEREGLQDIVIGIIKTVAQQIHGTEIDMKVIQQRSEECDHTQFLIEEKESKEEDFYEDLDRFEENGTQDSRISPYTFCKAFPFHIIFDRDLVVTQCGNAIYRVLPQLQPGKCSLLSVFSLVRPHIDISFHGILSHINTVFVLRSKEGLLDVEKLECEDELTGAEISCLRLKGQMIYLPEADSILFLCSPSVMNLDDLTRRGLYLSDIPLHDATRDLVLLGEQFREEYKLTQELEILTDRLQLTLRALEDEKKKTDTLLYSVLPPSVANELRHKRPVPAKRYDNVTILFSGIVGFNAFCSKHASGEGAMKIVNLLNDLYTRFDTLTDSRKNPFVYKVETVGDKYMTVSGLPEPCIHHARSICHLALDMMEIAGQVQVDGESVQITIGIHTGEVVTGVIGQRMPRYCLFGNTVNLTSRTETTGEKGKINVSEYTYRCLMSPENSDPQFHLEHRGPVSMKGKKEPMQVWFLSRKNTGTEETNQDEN
# Experiment: cGMP neuronal cell-based assay
# Conditions: rat primary hippocampal neurons; 30 μM DETA-NO; cGMP by LC-MS/MS; normalized to 10 μM Compound Y; compounds in Table IA; read-out: sGC-neuron Abs EC50
# Experimental: Rat primary neurons were isolated from fetuses of 18-day pregnant Sprague-Dawley females. The fetuses were collected in Hanks' balanced salt solution (HBSS) and brains were rapidly removed. The cerebral hippocampi were isolated and mechanically fragmented. Further tissue digestion was performed with 0.25% (wt/vol) trypsin solution in HBSS without Ca2+ and Mg2+ for 15 min at 37° C. After trypsination, cells were washed and resuspended in neurobasal medium supplemented with 0.5 mM L-glutamine, 12.5 uM glutamic acid, 2% B-27 and 100U/mL penicillin, and 100 μg/mL streptomycin. Cells were plated at a density of 4×10^4 cells/well in a poly-D-lysine coated 384-well flat clear-bottom plate (Corning Cat No 354662). Cells were incubated 6-7 days at 37° C. in a humidified chamber with 5% CO2. Media was removed and cells were washed 1× with HBSS containing Ca2+ and Mg2+, and replaced with 40 uL HBSS containing 0.5 mM IBMX, and incubated for 15 minutes at 37° C. 10 uL of a 5× stock of test compounds with diethylenetriamine NONOate (DETA-NO) was added. Final concentration of DETA-NO was 30 μM. Cells were incubated for 20 min at 37° C. Medium was removed, 50 uL of ice-cold 10% acetic acid was added, and incubated for 60 minutes at 4° C. Following centrifugation at 4° C. for 5 minutes at 1000×g to pellet cell debris, the supernatant was aspirated to a clean plate and the samples were analyzed for cGMP content. cGMP concentrations were determined from each sample using LC-MS/MS.
# Data were normalized to a high control using the following equation: 100*(Sample−Low Control)/(High Control−Low Control), where the low control is the average of 15 samples treated with 1% DMSO, and the high control is the average of 15 samples treated with 10 μM of the known sGC stimulator Compound Y (depicted in Example 2). Data were fit using a 4-parameter fit (log(agonist) vs. response—variable slope) using GraphPad Prism Software v.5. n=2 for all compounds. The Absolute EC50 was interpolated from the curve fit and is defined as the concentration at which a given compound elicits 50% of the high control response after data normalization. Compounds failing to elicit a minimum response of 50% are reported as >30 μM. For compounds run in duplicate or n higher than 2, the result herein given is the geometric mean of the several results obtained.
row,EC50 [nM],SMILES
1,≤ 100,"Fc1ccccc1Cn1nc(-c2nc(C3CC3(F)F)n[nH]2)c2cccnc21 (stereo not drawn) [Compound I-96, 3-(3-(2,2-Difluorocyclopropyl)-1H-1,2,4-triazol-5-yl)-1-(2-fluorobenzyl)-1H-pyrazolo[3,4-b]pyridine]"
2,≤ 100,"OCc1n[nH]c(-c2nn(Cc3ccccc3F)c3ncccc23)n1 [Compound I-64, (5-(1-(2-fluorobenzyl)-1H-pyrazolo[3,4-b]pyridin-3-yl)-1H-1,2,4-triazol-3-yl)methanol]"
3,≤ 100,"FC(F)(F)c1n[nH]c(-c2nn(Cc3ccccc3)c3ncccc23)n1 [Compound I-49, 1-Benzyl-3-(3-(trifluoromethyl)-1H-1,2,4-triazol-5-yl)-1H-pyrazolo[3,4-b]pyridine]"
4,≤ 100,"FC(F)(F)c1n[nH]c(-c2nn(Cc3cncnc3)c3ncccc23)n1 [Compound I-4, 1-(Pyrimidin-5-ylmethyl)-3-(3-(trifluoromethyl)-1H-1,2,4-triazol-5-yl)-1H-pyrazolo[3,4-b]pyridine]"
5,≤ 100,N#Cc1n[nH]c(-c2nn(Cc3ccccc3F)c3ncccc23)n1 [Compound I-41]
6,≤ 100,"Fc1cccc(Cn2nc(-c3nc(C(F)(F)F)n[nH]3)c3cccnc32)c1F [Compound I-48, 1-(2,3-Difluorobenzyl)-3-(3-(trifluoromethyl)-1H-1,2,4-triazol-5-yl)-1H-pyrazolo[3,4-b]pyridine]"
7,≤ 100,"Fc1cccc(Cn2nc(-c3nc(Cl)n[nH]3)c3cccnc32)c1F [Compound I-86, 3-(3-Chloro-1H-1,2,4-triazol-5-yl)-1-(2,3-difluorobenzyl)-1H-pyrazolo[3,4-b]pyridine]"

# Second part, the compound before the results:
row,SMILES,EC50 [nM]
1,"FC(F)(F)c1n[nH]c(-c2nn(CCC(F)(F)C(F)(F)F)c3ncccc23)n1 [Compound I-2, 1-(3,3,4,4,4-pentafluorobutyl)-3-(3-(trifluoromethyl)-1H-1,2,4-triazol-5-yl)-1H-pyrazolo[3,4-b]pyridine]",≤ 100
2,"Fc1cccc(Cc2nn(-c3nc(C(F)(F)F)n[nH]3)c3cccnc23)c1F [Compound I-105, 3-(2,3-Difluorobenzyl)-1-(3-(trifluoromethyl)-1H-1,2,4-triazol-5-yl)-1H-pyrazolo[4,3-b]pyridine]",≤ 100
3,"Cc1ncc(Cn2nc(-c3nc(C(F)(F)F)n[nH]3)c3ccccc32)cn1 [Compound I-62, 1-((2-methylpyrimidin-5-yl)methyl)-3-(3-(trifluoromethyl)-1H-1,2,4-triazol-5-yl)-1H-indazole]",≤ 100
4,"Fc1ccccc1Cc1nn(-c2nc(C(F)(F)F)n[nH]2)c2cccnc12 [Compound I-31, 3-(2-Fluorobenzyl)-1-(3-(trifluoromethyl)-1H-1,2,4-triazol-5-yl)-1H-pyrazolo[4,3-b]pyridine]",≤ 100
5,"Fc1ccccc1Cc1nn(-c2nc(C(F)F)n[nH]2)c2cccnc12 [Compound I-101, 1-(3-(Difluoromethyl)-1H-1,2,4-triazol-5-yl)-3-(2-fluorobenzyl)-1H-pyrazolo[4,3-b]pyridine]",≤ 100
